Reference: patent US11384060B2, “Amide compounds and use thereof” (ALPHALA CO., LTD., priority 2017, dated 2022)

Tests used:
[1] = molecular target: T1, glucagon receptor (GCGR) overexpressed CHO-K1 cells or human primary hepatocytes (Homo sapiens, UniProt P47871); assay: Glucagon cAMP inhibition assay (Cisbio cAMP Dynamic 2 HTRF); type: cell-based; conditions: inhibition of glucagon (EC50 concentration) induced cAMP production
T1 construct: expressed in transfected cells; host or cells: GCGR overexpressed CHO-K1 cells or human primary hepatocytes (endogenous receptor)
T1 sequence (P47871 26-477): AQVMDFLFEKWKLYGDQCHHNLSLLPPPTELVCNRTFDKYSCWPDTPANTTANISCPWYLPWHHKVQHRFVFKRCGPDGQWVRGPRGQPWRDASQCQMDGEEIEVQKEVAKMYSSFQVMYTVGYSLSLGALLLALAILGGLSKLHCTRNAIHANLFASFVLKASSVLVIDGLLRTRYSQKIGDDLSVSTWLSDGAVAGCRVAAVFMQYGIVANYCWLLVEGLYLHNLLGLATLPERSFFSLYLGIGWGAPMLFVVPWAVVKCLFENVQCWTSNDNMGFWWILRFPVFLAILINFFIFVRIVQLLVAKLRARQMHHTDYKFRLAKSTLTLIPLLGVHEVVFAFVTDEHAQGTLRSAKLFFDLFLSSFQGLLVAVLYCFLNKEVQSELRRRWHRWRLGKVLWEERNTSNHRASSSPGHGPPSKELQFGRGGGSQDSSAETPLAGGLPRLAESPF
Procedure, shortened: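 GCGR-overexpressing CHO-K1 cells or human primary hepatocytes in HBSS with 0.1% BSA and 800 nM IBMX, pre-incubated 30 min with serially diluted compounds (1% DMSO final), then stimulated 30 min at room temperature with glucagon at its EC50. cAMP measured by HTRF after 60 min lysis; IC50 by non-linear regression.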

glucagon receptor (GCGR) = molecular target: T2, glucagon receptor (GCGR) (Homo sapiens, UniProt P47871); assay: I125-glucagon binding assay (competition, GCGR membrane fractions); conditions: competition with I125-glucagon 0.0625 nM, membrane fractions of GCGR overexpressed CHO-K1 cells
T2 construct: expressed in transfected cells; host or cells: CHO-K1 cells overexpressing GCGR (membrane fractions)
T2 sequence (P47871 26-477): as above
Procedure, shortened: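 Membranes from CHO-K1 cells overexpressing GCGR, 7.5 μg/well in 50 mM Tris pH 7.4 with 0.5% BSA, were preincubated 5 min with serially diluted compounds, then given 0.0625 nM final I^125-glucagon for 30 min at 25° C. Bound label was filtered on PEI-coated GF/B and counted; IC50 by non-linear regression.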

Structure (SMILES)	IC50 cAMP [1] [nM]	IC50 (glucagon receptor (GCGR)) [nM]
CC(C)[C@@H](COc1ccc(-c2ccc(C(F)(F)F)cc2Cl)nc1)Nc1ccc(C(=O)NCCC(=O)O)cc1 [Compound 10-2]	1805	255
CC(C)[C@@H](COc1ccc(-c2ccc(C(F)(F)F)cc2F)nc1)Nc1ccc(C(=O)NCCC(=O)O)cc1 [Compound 10-3, (S)-3-(4-((1-((6-(2-fluoro-4-(trifluoromethyl)phenyl)pyridin-3-yl)oxy)-3-methylbutan-2-yl)amino)benzamido)propanoic Acid]	1206	511
CC(C)[C@@H](COc1ccc(-c2ccc(Cl)cc2Cl)nc1)Nc1ccc(C(=O)NCCC(=O)O)cc1 [Compound 10-4, (S)-3-(4-((1-((6-(2,4-dichlorophenyl)pyridin-3-yl)oxy)-3-methylbutan-2-yl)amino)benzamido)propanoic Acid]	4036	445
CC(C)[C@@H](COc1ccc(-c2cc(Cl)cc(Cl)c2)nc1)Nc1ccc(C(=O)NCCC(=O)O)cc1 [Compound 10-5, (S)-3-(4-((1-((6-(3,5-dichlorophenyl)pyridin-3-yl)oxy)-3-methylbutan-2-yl)amino)benzamido)propenoic Acid]	3690	441
CC(C)[C@@H](COc1ccc(-c2cc3ccccc3o2)nc1)Nc1ccc(C(=O)NCCC(=O)O)cc1 [Compound 10-6, (S)-3-(4-((1-((6-(benzofuran-2-yl)pyridin-3-yl)oxy)-3-methylbutan-2-yl)amino)benzamido)propanoic Acid]	2650	252
CCCC[C@@H](COc1ccc(-c2ccc(Cl)cc2Cl)nc1)Nc1ccc(C(=O)NCCC(=O)O)cc1 [Compound 10-7, (S)-3-(4-((1-((6-(2,4-dichlorophenyl)pyridin-3-yl)oxy)hexan-2-yl)amino)benzamido)propanoic Acid]	732	319
CCCC[C@@H](COc1ccc(-c2ccc(C(F)(F)F)cc2F)nc1)Nc1ccc(C(=O)NCCC(=O)O)cc1 [Compound 10-8, (S)-3-(4-((1-((6-(2-fluoro-4-(trifluoromethyl)phenyl)pyridin-3-yl)oxy)hexan-2-yl)amino)benzamido)propanoic Acid]	344	180
CCCC[C@@H](COc1ccc(-c2ccc(C(F)(F)F)cc2)nc1)Nc1ccc(C(=O)NCCC(=O)O)cc1 [Compound 10-9, (S)-3-(4-((1-((6-(4-(trifluoromethyl)phenyl)pyridin-3-yl)oxy)hexan-2-yl)amino)benzamido)propanoic Acid]	465	127
CCCC[C@@H](COc1ccc(-c2cc(Cl)cc(Cl)c2)nc1)Nc1ccc(C(=O)NCCC(=O)O)cc1 [Compound 10-10, (S)-3-(4-((1-((6-(3,5-dichlorophenyl)pyridin-3-yl)oxy)hexan-2-yl)amino)benzamido) propanoic Acid]	493	314
CCCC[C@@H](COc1ccc(-c2ccc(C(F)(F)F)cc2Cl)nc1)Nc1ccc(C(=O)NCCC(=O)O)cc1 [Compound 10-11, (S)-3-(4-((1-((6-(2-chloro-4-(trifluoromethyl)phenyl)pyridin-3-yl)oxy)hexan-2-yl)amino)benzamido)propanoic Acid]	537.4	270
CCCC[C@@H](COc1ccc(-c2cc3ccccc3o2)nc1)Nc1ccc(C(=O)NCCC(=O)O)cc1 [Compound 10-12, (S)-3-(4-((1-((6-(benzofuran-2-yl)pyridin-3-yl)oxy)hexan-2-yl)amino)benzamido)propanoic Acid]	791.6	181
CC[C@H](C)[C@@H](COc1ccc(-c2cc3ccccc3o2)nc1)Nc1ccc(C(=O)NCCC(=O)O)cc1 [Compound 10-13, 3-(4-(((2S,3S)-1-((6-(benzofuran-2-yl)pyridin-3-yl)oxy)-3-methylpentan-2-yl)amino)benzamido)propanoic Acid]	863.9	224
